Reference: patent publication US20250235460A1, “COMBINATION THERAPY USING GLUCOSE-DEPENDENT INSULINOTROPIC POLYPEPTIDE RECEPTOR ANTAGONIST COMPOUNDS AND GLP-1 RECEPTOR AGONIST COMPOUNDS” (Pfizer Inc., priority 2024, published 2025)

How the values were obtained:
human GLP-1R [1] = target: human GLP-1R (Homo sapiens, UniProt P43220, G168S); assay: CHO GLP-1R Clone H6 cAMP HTRF agonist assay (Assay 1, high receptor density); format: cell-based; conditions: for EC50: CHO GLP-1R clone H6, cAMP HTRF, geometric mean; for Emax: CHO GLP-1R clone H6, arithmetic mean, relative to saturating GLP-1 (1 μM), read-out: Assay 1 Emax (%)
Sequence of human GLP-1R (Homo sapiens, UniProt P43220, G168S) (P43220 24-463 G168S): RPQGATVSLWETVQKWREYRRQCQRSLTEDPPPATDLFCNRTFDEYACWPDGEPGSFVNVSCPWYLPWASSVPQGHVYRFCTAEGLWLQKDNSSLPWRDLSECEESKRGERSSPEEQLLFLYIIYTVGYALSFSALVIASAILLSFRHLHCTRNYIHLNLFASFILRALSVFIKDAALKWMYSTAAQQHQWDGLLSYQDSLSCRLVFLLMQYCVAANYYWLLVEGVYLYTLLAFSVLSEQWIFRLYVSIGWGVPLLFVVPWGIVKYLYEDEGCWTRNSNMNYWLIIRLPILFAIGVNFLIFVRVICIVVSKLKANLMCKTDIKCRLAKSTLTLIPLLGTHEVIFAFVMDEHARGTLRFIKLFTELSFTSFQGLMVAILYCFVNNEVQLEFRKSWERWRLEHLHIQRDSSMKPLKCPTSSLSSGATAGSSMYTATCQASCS
In short: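 EC50 values are reported as geometric means and Emax as arithmetic means across the listed number of replicates, both given to two significant figures.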

human GLP-1R [2] = target: human GLP-1R (Homo sapiens, UniProt P43220, L260F); assay: CHO GLP-1R Clone C6 cAMP HTRF agonist assay (Assay 2, low receptor density); format: cell-based; conditions: for EC50: CHO GLP-1R clone C6, cAMP HTRF, geometric mean; for Emax: CHO GLP-1R clone C6, arithmetic mean, relative to saturating GLP-1 (1 μM)
Sequence of human GLP-1R (Homo sapiens, UniProt P43220, L260F) (P43220 24-463 L260F): as the sequence (P43220 24-463 G168S) above, with S145G, L237F counted along it
Excerpt: In Table 5 and Table 6, assay data are presented to two (2) significant figures as the geometric mean (EC50s) and arithmetic mean (Emax) based on the number of replicates listed (Number). A blank cell means there was no data for that Example or the Emax was not calculated.

| EC50 (human GLP-1R [1]) [nM] | Emax (human GLP-1R [1]) [%] | EC50 (human GLP-1R [2]) [nM] | Emax (human GLP-1R [2]) [%] | Structure (SMILES) |
| --- | --- | --- | --- | --- |
| 0.56 | 73 | 9.6 | 84 | Cn1c(CN2CCC(c3cccc(OCc4cc(F)ccc4F)n3)CC2)nc2ccc(C(=O)O)cc21 [Compound 233B, 2-[(4-{6-[(2,5-difluorobenzyl)oxy]pyridin-2-yl}piperidin-1-yl)methyl]-1-methyl-1H-benzimidazole-6-carboxylic acid] |
| 0.52 | 70 | 8.5 | 78 | CC1CN(c2cccc(OCc3ccc(C#N)cc3F)n2)CCN1Cc1nc2ccc(C(=O)O)cc2n1Cc1cnco1 (stereo in doubt) [Compound 242B, 2-{[(2S)-4-{6-[(4-cyano-2-fluorobenzyl)oxy]pyridin-2-yl}-2-methylpiperazin-1-yl]methyl}-1-(1,3-oxazol-5-ylmethyl)-1H-benzimidazole-6-carboxylic acid] |
| 18 | 84 | 350 | 77 | O=C(O)c1ccc2nc(CN3CCC(c4cccc(OCc5ccc(Cl)cc5F)n4)CC3)n(Cc3ncco3)c2n1 [Compound 167B, 2-[(4-{6-[(4-chloro-2-fluorobenzyl)oxy]pyridin-2-yl}piperidin-1-yl)methyl]-3-(1,3-oxazol-2-ylmethyl)-3H-imidazo[4,5-b]pyridine-5-carboxylic acid] |
| 37 | 69 | 1200 | 83 | O=C(O)c1ccc2nc(CN3CCC(c4cccc(OCc5ccc(Cl)cc5F)n4)CC3)n(Cc3ccon3)c2c1 [Compound 344B, 2-[(4-{6-[(4-chloro-2-fluorobenzyl)oxy]pyridin-2-yl}piperidin-1-yl)methyl]-1-(1,2-oxazol-3-ylmethyl)-1H-benzimidazole-6-carboxylic acid] |
| 3.9 | 82 | 45 | 82 | N#Cc1ccc(COc2nc(C3CCN(Cc4nc5ccc(C(=O)O)cc5n4C[C@@H]4CCO4)CC3)ccc2F)c(F)c1 [Compound 113B, 2-[(4-{6-[(4-cyano-2-fluorobenzyl)oxy]-5-fluoropyridin-2-yl}piperidin-1-yl)methyl]-1-[(2S)-oxetan-2-ylmethyl]-1H-benzimidazole-6-carboxylic acid] |
| 54 | 77 | 1200 | 82 | O=C(O)c1ccc2nc(CN3CCC(c4cccc(OCc5ccc(Cl)cc5F)n4)CC3)n(CC3CCC3)c2c1 [Compound 291B, 2-[(4-{6-[(4-chloro-2-fluorobenzyl)oxy]pyridin-2-yl}piperidin-1-yl)methyl]-1-(cyclobutylmethyl)-1H-benzimidazole-6-carboxylic acid] |
| 110 | 70 | 3500 | 95 | COC(C)(C)Cn1c(CN2CCC(c3cccc(OCc4ccc(Cl)cc4F)n3)CC2)nc2ccc(C(=O)O)cc21 [Compound 297B, 2-[(4-{6-[(4-chloro-2-fluorobenzyl)oxy]pyridin-2-yl}piperidin-1-yl)methyl]-1-(2-methoxy-2-methylpropyl)-1H-benzimidazole-6-carboxylic acid] |
| 8.5 | 88 | 220 | 110 | O=C(O)c1ccc2nc(CN3CCC(c4cccc(OCc5ccc(F)cc5F)n4)CC3)n(Cc3cnco3)c2c1 [Compound 157B, 2-[(4-{6-[(2,4-difluorobenzyl)oxy]pyridin-2-yl}piperidin-1-yl)methyl]-1-(1,3-oxazol-5-ylmethyl)-1H-benzimidazole-6-carboxylic acid] |
| 0.3 | 93 | 3.8 | 93 | COCCn1c(CN2CCC(c3cccc(OCc4cc(F)c(Cl)cc4F)n3)CC2)nc2ccc(C(=O)O)cc21 [Compound 219B, 2-((4-(6-((4-chloro-2,5-difluorobenzyl)oxy)pyridin-2-yl)piperidin-1-yl)methyl)-1-(2-methoxyethyl)-1H-benzo[d]imidazole-6-carboxylic acid] |
| 36 | 71 | 1600 | 82 | O=C(O)c1ccc2nc(CN3CCC(c4cccc(OCc5ccc(Cl)cc5F)n4)CC3)n(Cc3n[nH]c(C4CC4)n3)c2c1 [Compound 339B, 2-[(4-{6-[(4-chloro-2-fluorobenzyl)oxy]pyridin-2-yl}piperidin-1-yl)methyl]-1-[(5-cyclopropyl-1H-1,2,4-triazol-3-yl)methyl]-1H-benzimidazole-6-carboxylic acid] |
| 55 | 71 | 1700 | 99 | O=C(O)c1ccc2nc(CN3CCC(c4cccc(OCc5ccc(Cl)cc5F)n4)CC3)n(CCn3cncn3)c2c1 [Compound 292B, 2-[(4-{6-[(4-chloro-2-fluorobenzyl)oxy]pyridin-2-yl}piperidin-1-yl)methyl]-1-[2-(1H-1,2,4-triazol-1-yl)ethyl]-1H-benzimidazole-6-carboxylic acid] |
| 1.5 | 73 | 24 | 91 | COCCn1c(CN2CCC(c3cccc(OCc4ccc(C)cc4)n3)CC2)nc2ccc(C(=O)O)cc21 [Compound 217B, Ammonium 2-((4-(6-((4-Methylbenzyl)oxy)pyridin-2-yl)piperidin-1-yl)methyl)-1-(2-methoxyethyl)-1H-benzo[d]imidazole-6-carboxylate] |
| 1.1 | 79 | 13 | 100 | N#Cc1ccc(COc2cccc(C3CCN(Cc4nc5ccc(C(=O)O)cc5n4Cc4ccon4)CC3)n2)c(F)c1 [Compound 161B, 2-[(4-{6-[(4-cyano-2-fluorobenzyl)oxy]pyridin-2-yl}piperidin-1-yl)methyl]-1-(1,2-oxazol-3-ylmethyl)-1H-benzimidazole-6-carboxylic acid] |
| 4 | 64 | 48 | 79 | Cn1c(CN2CCC(c3cccc(OCc4cccc(F)c4F)n3)CC2)nc2ccc(C(=O)O)cc21 [Compound 227B, 2-[(4-{6-[(2,3-difluorobenzyl)oxy]pyridin-2-yl}piperidin-1-yl)methyl]-1-methyl-1H-benzimidazole-6-carboxylic acid] |
| 24 | 76 | 1200 | 94 | Cn1cncc1Cn1c(CN2CCN(c3cccc(OCc4ccc(Cl)cc4F)n3)CC2)nc2ccc(C(=O)O)cc21 [Compound 153B, 2-[(4-{6-[(4-chloro-2-fluorobenzyl)oxy]pyridin-2-yl}piperazin-1-yl)methyl]-1-[(1-methyl-1H-imidazol-5-yl)methyl]-1H-benzimidazole-6-carboxylic acid] |
| 14 | 72 | 190 | 83 | O=C(O)c1ccc2nc(CN3CCN(c4cccc(OCc5ccc(Cl)cc5F)n4)CC3)n(Cc3cnco3)c2c1 [Compound 158B, 2-[(4-{6-[(4-chloro-2-fluorobenzyl)oxy]pyridin-2-yl}piperazin-1-yl)methyl]-1-(1,3-oxazol-5-ylmethyl)-1H-benzimidazole-6-carboxylic acid] |
| 170 | 78 | 2100 | 71 | COCCn1c(CN2CCN(c3ccc(F)c(OCc4ccc(C#N)cc4)n3)C[C@@H]2C)nc2ccc(C(=O)O)cc21 [Compound 175B, 2-{[(2S)-4-{6-[(4-cyanobenzyl)oxy]-5-fluoropyridin-2-yl}-2-methylpiperazin-1-yl]methyl}-1-(2-methoxyethyl)-1H-benzimidazole-6-carboxylic acid] |
| 47 | 71 | 1600 | 81 | O=C(O)c1ccc2nc(CN3CCN(c4cccc(OCc5ccc(Cl)cc5F)n4)CC3)n(C[C@@H]3CCO3)c2n1 [Compound 120B, 2-[(4-{6-[(4-chloro-2-fluorobenzyl)oxy]pyridin-2-yl}piperazin-1-yl)methyl]-3-[(2S)-oxetan-2-ylmethyl]-3H-imidazo[4,5-b]pyridine-5-carboxylic acid] |
| 49 | 71 | 2100 | – | CCCn1cnnc1Cn1c(CN2CCC(c3cccc(OCc4ccc(Cl)cc4F)n3)CC2)nc2ccc(C(=O)O)cc21 [Compound 187B, 2-[(4-{6-[(4-chloro-2-fluorobenzyl)oxy]pyridin-2-yl}piperidin-1-yl)methyl]-1-[(4-propyl-4H-1,2,4-triazol-3-yl)methyl]-1H-benzimidazole-6-carboxylic acid] |
| 68 | 77 | 1700 | 110 | COCCn1c(CN2CC[C@H](c3cccc(OCc4ccc(Cl)cc4F)n3)[C@@H](F)C2)nc2ccc(C(=O)O)cc21 (racemic) [Compound 189B, rac 2-{[(3S,4S)-4-{6-[(4-chloro-2-fluorobenzyl)oxy]pyridin-2-yl}-3-fluoropiperidin-1-yl]methyl}-1-(2-methoxyethyl)-1H-benzimidazole-6-carboxylic acid] |
| 6.3 | 83 | 110 | 87 | COCCn1c(CN2CCN(c3cccc(OCc4ccc(Cl)cc4F)n3)C[C@@H]2C)nc2ccc(C(=O)O)cc21 [Compound 355B, 2-{[(2S)-4-{6-[(4-chloro-2-fluorobenzyl)oxy]pyridin-2-yl}-2-methylpiperazin-1-yl]methyl}-1-(2-methoxyethyl)-1H-benzimidazole-6-carboxylic acid] |
| 5.7 | 67 | 100 | 79 | COCCn1c(CN2CCC(c3cccc(OCc4ccc(Cl)cc4F)n3)CC2)nc2cnc(C(=O)O)cc21 [Compound 205B, 2-[(4-{6-[(4-chloro-2-fluorobenzyl)oxy]pyridin-2-yl}piperidin-1-yl)methyl]-1-(2-methoxyethyl)-1H-imidazo[4,5-c]pyridine-6-carboxylic acid] |
